Earlier results as cited in patent US8450380B2, “Method for implementing active ingredients in order to protect them and optimize their delivery method” (Coatex S.A.S., priority 2007, dated 2013).

Settings: general statement

Solubility: non-hydrosoluble
SMILES: O=c1c2cc(Cl)ccc2[nH]c2cc3c(=O)c4cc(Cl)ccc4[nH]c3cc12 [Magenta Cinquasia RT-235-D, 2,9 dichloro-5,12 dihydroquino [2,3-b] acridine-7,14 dione]
